Assay results from patent publication US10479795B2 (Incyte Corporation, priority 2016, dated 2019).

Biological target: PI3Kγ (p110γ) Recombinant Human Protein (Homo sapiens (Human), UniProt P48736)
Assay: PI3K-γ Scintillation Proximity Assay
Type: biochemical
Conditions: read-out: PI3Kγ IC50
Description: [γ-^33P]ATP (10 mCi/mL) and Wheat Germ Agglutinin (WGA) YSi SPA Scintillation Beads was purchased from Perkin-Elmer (Waltham, Mass.). […] PI3Kγ (p110γ) Recombinant Human Protein was purchased from Life technology (Grand Island, N.Y.). ATP, MgCl2, DTT, EDTA, MOPS and CHAPS were purchased from Sigma-Aldrich (St. Louis, Mo.).
The kinase reaction was conducted in polystyrene 384-well Greiner Bio-one white plate from Thermo Fisher Scientific in a final volume of 25 μL. Inhibitors were first diluted serially in DMSO and added to the plate wells before the addition of other reaction components. The final concentration of DMSO in the assay was 2%. The PI3Kγ assay was carried out at room temperature in 20 mM MOPS, pH 6.7, 10 mM MgCl2, 5 mM DTT and CHAPS 0.03%. Reactions were initiated by the addition of ATP, the final reaction mixture consisted of 20 μM PIP2, 2 μM ATP, 0.5 μCi [γ-^33P] […] The final concentration of SPA beads is 1.0 mg/mL. After the plate sealing, plates were shaken overnight at room temperature and centrifuged at 1500 rpm for 10 min, the radioactivity of the product was determined by scintillation counting on Topcount (Perkin-Elmer). IC50 determination was performed by fitting the curve of percent of the solvent control activity versus the log of the inhibitor concentration using the GraphPad Prism 6.0 software.

PI3Kγ (p110γ) Recombinant Human Protein, sequence (P48736 whole entry): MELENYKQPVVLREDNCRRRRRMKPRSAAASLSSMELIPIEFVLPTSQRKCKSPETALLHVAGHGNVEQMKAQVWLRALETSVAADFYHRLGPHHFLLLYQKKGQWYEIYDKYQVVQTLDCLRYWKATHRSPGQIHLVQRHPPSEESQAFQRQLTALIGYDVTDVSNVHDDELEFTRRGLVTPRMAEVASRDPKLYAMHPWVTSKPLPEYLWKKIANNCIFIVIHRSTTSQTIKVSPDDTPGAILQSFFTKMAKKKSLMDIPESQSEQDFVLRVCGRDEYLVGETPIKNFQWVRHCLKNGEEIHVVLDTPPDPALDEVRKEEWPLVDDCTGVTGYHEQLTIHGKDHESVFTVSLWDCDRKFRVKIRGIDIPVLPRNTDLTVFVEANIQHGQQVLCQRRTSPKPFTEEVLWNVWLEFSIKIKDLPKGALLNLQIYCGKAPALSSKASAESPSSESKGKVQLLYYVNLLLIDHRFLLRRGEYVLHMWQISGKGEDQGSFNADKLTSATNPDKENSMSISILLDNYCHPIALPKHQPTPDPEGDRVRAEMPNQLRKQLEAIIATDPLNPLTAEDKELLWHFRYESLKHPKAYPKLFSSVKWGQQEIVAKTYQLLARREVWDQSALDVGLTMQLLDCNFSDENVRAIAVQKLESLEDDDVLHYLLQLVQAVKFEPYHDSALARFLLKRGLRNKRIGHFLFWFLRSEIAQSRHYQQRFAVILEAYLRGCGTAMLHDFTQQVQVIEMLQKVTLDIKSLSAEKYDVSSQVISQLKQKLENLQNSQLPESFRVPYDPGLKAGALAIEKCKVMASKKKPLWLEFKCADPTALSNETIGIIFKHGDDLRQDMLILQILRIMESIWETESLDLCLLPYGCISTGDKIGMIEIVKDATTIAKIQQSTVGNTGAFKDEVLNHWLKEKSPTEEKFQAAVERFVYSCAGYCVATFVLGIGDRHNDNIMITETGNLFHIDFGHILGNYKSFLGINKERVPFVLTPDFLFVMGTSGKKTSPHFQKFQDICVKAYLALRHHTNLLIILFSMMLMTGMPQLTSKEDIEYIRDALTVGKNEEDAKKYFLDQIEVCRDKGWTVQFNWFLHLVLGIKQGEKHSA

Row | Structure (SMILES) | IC50
1 | Cc1ccc(S(=O)(=O)Nc2c(C)nn(C)c2C)cc1-c1cnc2c(N)ncnn12 [Example 214, 3-(4-Aminoimidazo[2,1-f][1,2,4]triazin-7-yl)-4-methyl-N-(1,3,5-trimethyl-1H-pyrazol-4-yl)benzenesulfonamide] | < 0.1 µM
2 | Cc1ccc(S(=O)(=O)N2CCCn3nccc32)cc1-c1cnc2c(N)ncnn12 [Example 215, 7-(5-((6,7-dihydropyrazolo[1,5-a]pyrimidin-4(5H)-yl)sulfonyl)-2-methylphenyl)imidazo[2,1-f][1,2,4]triazin-4-amine] | < 0.1 µM
3 | Cc1ccc(S(=O)(=O)N2CCC(c3ccccn3)CC2)cc1-c1cnc2c(N)ncnn12 [Example 216, 7-(2-methyl-5-((4-(pyridin-2-yl)piperidin-1-yl)sulfonyl)phenyl)imidazo[2,1-f][1,2,4]triazin-4-amine] | < 0.1 µM
4 | Cc1ccc(S(=O)(=O)N2CCC(C#N)CC2)cc1-c1cnc2c(N)ncnn12 [Example 217, 1-((3-(4-aminoimidazo[2,1-f][1,2,4]triazin-7-yl)-4-methylphenyl)sulfonyl)piperidine-4-carbonitrile] | < 0.1 µM
5 | Cc1ccc(S(=O)(=O)N2CCCC(C(F)(F)F)C2)cc1-c1cnc2c(N)ncnn12 (stereo not shown) [Example 218, 7-(2-methyl-5-((3-(trifluoromethyl)piperidin-1-yl)sulfonyl)phenyl)imidazo[2,1-f][1,2,4]triazin-4-amine] | < 0.1 µM
6 | Cc1ccc(S(=O)(=O)N2CC(C3CCOC3)C2)cc1-c1cnc2c(N)ncnn12 (stereo not shown) [Example 219, 7-(2-methyl-5-((3-(tetrahydrofuran-3-yl)azetidin-1-yl)sulfonyl)phenyl)imidazo[2,1-f][1,2,4]triazin-4-amine] | 0.1 to 0.5 µM
7 | Cc1ccc(S(=O)(=O)N2CC3(CCOC3)C2)cc1-c1cnc2c(N)ncnn12 [Example 220, 7-(5-((6-oxa-2-azaspiro[3.4]octan-2-yl)sulfonyl)-2-methylphenyl)imidazo[2,1-f][1,2,4]triazin-4-amine] | < 0.1 µM
8 | Cc1ccc(S(=O)(=O)N2C3CC4CC2CC(C3)O4)cc1-c1cnc2c(N)ncnn12 [Example 221, 7-(5-((-2-oxa-6-azaadamantan-6-yl)sulfonyl)-2-methylphenyl)imidazo[2,1-f][1,2,4]triazin-4-amine] | < 0.1 µM
9 | Cc1ccc(S(=O)(=O)N2CCn3cnnc3C2C)cc1-c1cnc2c(N)ncnn12 (stereo not shown) [Example 222, 7-(2-methyl-5-((8-methyl-5,6-dihydro-[1,2,4]triazolo[4,3-a]pyrazin-7(8H)-yl)sulfonyl)phenyl)imidazo[2,1-f][1,2,4]triazin-4-amine] | < 0.1 µM
10 | Cc1ccc(S(=O)(=O)N2CCn3ccnc3C2)cc1-c1cnc2c(N)ncnn12 [Example 223, 7-(5-((5,6-dihydroimidazo[1,2-a]pyrazin-7(8H)-yl)sulfonyl)-2-methylphenyl)imidazo[2,1-f][1,2,4]triazin-4-amine] | < 0.1 µM
11 | Cc1ccc(S(=O)(=O)N2CCc3nc[nH]c3C2)cc1-c1cnc2c(N)ncnn12 [Example 224, 7-(2-methyl-5-((3,4,6,7-tetrahydro-5H-imidazo[4,5-c]pyridin-5-yl)sulfonyl)phenyl)imidazo[2,1-f][1,2,4]triazin-4-amine] | < 0.1 µM
12 | Cc1ccc(S(=O)(=O)N2CCc3nn(C)cc3C2)cc1-c1cnc2c(N)ncnn12 [Example 225, 7-(2-methyl-5-((2-methyl-2,4,6,7-tetrahydro-5H-pyrazolo[4,3-c]pyridin-5-yl)sulfonyl)phenyl)imidazo[2,1-f][1,2,4]triazin-4-amine] | < 0.1 µM
13 | CC(=O)NC1CCN(S(=O)(=O)c2ccc(C)c(-c3cnc4c(N)ncnn34)c2)CC1 [Example 226, N-(1-((3-(4-aminoimidazo[2,1-f][1,2,4]triazin-7-yl)-4-methylphenyl)sulfonyl)piperidin-4-yl)acetamide] | < 0.1 µM
14 | CNC(=O)C1CCN(S(=O)(=O)c2ccc(C)c(-c3cnc4c(N)ncnn34)c2)CC1 [Example 227, 1-((3-(4-aminoimidazo[2,1-f][1,2,4]triazin-7-yl)-4-methylphenyl)sulfonyl)-N-methylpiperidine-4-carboxamide] | < 0.1 µM
15 | Cc1ccc(S(=O)(=O)N2CCN(C)C(=O)C2)cc1-c1cnc2c(N)ncnn12 [Example 228, 4-((3-(4-aminoimidazo[2,1-f][1,2,4]triazin-7-yl)-4-methylphenyl)sulfonyl)-1-methylpiperazin-2-one] | < 0.1 µM
16 | CC(=O)N1CCN(S(=O)(=O)c2ccc(C)c(-c3cnc4c(N)ncnn34)c2)CC1 [Example 229, 1-(4-((3-(4-aminoimidazo[2,1-f][1,2,4]triazin-7-yl)-4-methylphenyl)sulfonyl)piperazin-1-l)ethan-1-one] | < 0.1 µM
17 | Cc1ccc(S(=O)(=O)N2CCN(c3ncccn3)CC2)cc1-c1cnc2c(N)ncnn12 [Example 230, 7-(2-methyl-5-((4-(pyrimidin-2-yl)piperazin-1-yl)sulfonyl)phenyl)imidazo[2,1-f][1,2,4]triazin-4-amine] | < 0.1 µM
18 | Cc1ccc(S(=O)(=O)N2CCN(c3nccnc3C#N)CC2)cc1-c1cnc2c(N)ncnn12 [Example 231, 3-(4-((3-(4-aminoimidazo[2,1-f][1,2,4]triazin-7-yl)-4-methylphenyl)sulfonyl)piperazin-1-yl)pyrazine-2-carbonitrile] | < 0.1 µM
19 | Cc1ccc(S(=O)(=O)N2CCN(c3ccc(C#N)cn3)CC2)cc1-c1cnc2c(N)ncnn12 [Example 232, 6-(4-((3-(4-aminoimidazo[2,1-f][1,2,4]triazin-7-yl)-4-methylphenyl)sulfonyl)piperazin-1-yl)nicotinonitrile] | < 0.1 µM
20 | Cc1ccc(S(=O)(=O)NCc2cnccn2)cc1-c1cnc2c(N)ncnn12 [Example 233, 3-(4-aminoimidazo[2,1-f][1,2,4]triazin-7-yl)-4-methyl-N-(pyrazin-2-ylmethyl)benzenesulfonamide] | < 0.1 µM
21 | Cc1ccc(S(=O)(=O)NC(c2ccccn2)C(F)(F)F)cc1-c1cnc2c(N)ncnn12 (stereo not shown) [Example 234, 3-(4-aminoimidazo[2,1-f][1,2,4]triazin-7-yl)-4-methyl-N-(2,2,2-trifluoro-1-(pyridin-2-yl)ethyl)benzenesulfonamide] | 0.1 to 0.5 µM
22 | Cc1ccc(S(=O)(=O)NCc2cccc(C(F)(F)F)n2)cc1-c1cnc2c(N)ncnn12 [Example 235, 3-(4-aminoimidazo[2,1-f][1,2,4]triazin-7-yl)-4-methyl-N-((6-(trifluoromethyl)pyridin-2-yl)methyl)benzenesulfonamide] | < 0.1 µM
23 | Cc1ccc(S(=O)(=O)NCc2ccnn2C)cc1-c1cnc2c(N)ncnn12 [Example 236, 3-(4-aminoimidazo[2,1-f][1,2,4]triazin-7-yl)-4-methyl-N-((1-methyl-1H-pyrazol-5-yl)methyl)benzenesulfonamide] | < 0.1 µM
24 | Cc1nc(CNS(=O)(=O)c2ccc(C)c(-c3cnc4c(N)ncnn34)c2)no1 [Example 237, 3-(4-aminoimidazo[2,1-f][1,2,4]triazin-7-yl)-4-methyl-N-((5-methyl-1,2,4-oxadiazol-3-yl)methyl)benzenesulfonamide] | < 0.1 µM
25 | Cc1ccc(S(=O)(=O)NC(CN)C2CC2)cc1-c1cnc2c(N)ncnn12 (stereo not shown) [Example 238, N-(2-amino-1-cyclopropylethyl)-3-(4-aminoimidazo[2,1-f][1,2,4]triazin-7-yl)-4-methylbenzenesulfonamide] | 0.1 to 0.5 µM
